Test results: US20240268372A1, “Methods and Compositions for Extending Organ and Tissue Preservation” (The General Hospital Corporation, priority 2021, published 2024)
“And” between values parts separate entries of the source, which are not always exact repeats. Equal entries are not always repeated.

Tests used:
whole rat livers [1] = assay: Optimized partial freezing of whole rat livers: ex vivo simulated transplantation (normothermic reperfusion with whole blood)
Method: (§1) Within this standardized protocol, we first compared GLY, EG, and PG as main permeating CPA using a freezing temperature of −10° C. and storage duration of 1 day (FIG. 37). Using PG as the CPA, we subsequently tested the effect of freezing temperature (−10° C. vs −15° C.) and storage duration (1 day vs 5 days) on liver viability after partial freezing using the same protocol (FIG. 38).
The Affinity Pixie Oxygenator is a clinical grade oxygenator that has graduated fiber bundle density technology and radial flow path that is designed to create a more uniform blood flow, enhance gas transfer, reduce pressure drops, and decrease prime volume. Moreover, it also contains a Balance® Biosurface that contains a hydrophilic polymer coating to reduce platelet adhesion and activation. This adaptation to the oxygenator is essential since recirculating whole blood during simulated transplantation may trigger coagulation and inflammatory events that are not representative of in vivo events and could skew observed outcomes.
(§2) Machine perfusion system: The perfusion system provides a continuous perfusion through the portal vein that is pressure, flow, and temperature controlled. The perfusates can be either recirculated or flushed with a single pass though the liver and perfusates can be changed without interrupting perfusion. The setup and operation of the perfusion system is described in detail elsewhere (see, e.g., ref. 15). There were two oxygenators used in this study, including the Radnoti (Cat #130144) and Affinity Pixie Oxygenator (Cat #BBP241). Due to the flexibility and low cost of the Radnoti oxygenator, it was first used for initial optimization and characterization studies, including determining the effect of permeating CPAs (GLY vs EG vs PG; FIG. 37), temperature (−10 vs −15° C., FIG. 38) storage duration (1 vs 5 days, FIG. 38), and warm ischemic injury.
Preconditioning during SNMP: Directly after procurement the livers were perfused with 250 ml of SNMP preloading solution (see Table 7 for composition of all solutions). The perfusion temperature was set at 21° C. and perfusion was initiated at 5 ml/min. […] Next, the livers were perfused for 30 additional minutes to allow for cellular uptake of 3-O-methyl-D-glucose (3-OMG).
Preloading of CPAs during HMP: The SNMP preloading solution was gradually switched to HMP preloading solution in […] increments, each with 10% decreasing and 10% increasing volumetric fractions of SNMP and HMP preloading solution, respectively. During this switch, the perfusion temperature was lowered to 4° C., and flows were adjusted to a maximum perfusion pressure of 3 mmHg. Dependent on the flowrate, the solution switch took 10-15 minutes. The HMP preloading was continued for 30 additional minutes to ensure complete equilibration of the solution throughout the peripheral liver tissue.
This was done in 10 fractions of 10 ml, each with 10% decreasing and 10% increasing volumetric fractions of HMP preloading solution and storage solution, respectively. During this switch, the perfusion temperature was maintained at 4° C., and the flowrates were lowered to ensure a maximum perfusion pressure of 3 mmHg. The final 15 ml fraction of 100% storage solution was loaded at a fixed flowrate of 0.5 ml/min.
Partial freezing: After loading of the storage solution, the liver was placed in a bag with 50 ml fresh storage solution and suspended in a pre-cooled chiller (Engel, Schwertberg, Austria). Depending on the experimental condition the chiller temperature was pre-cooled to −10° C. or −15° C. and the liver stored for […] 5 days.

whole rat livers [2] = assay: Optimized partial freezing of whole rat livers: SNMP recovery after freezing; details: −15° C., 5 days; at 3 h
Method: as §1
as §2, with “injury. Once the major aspects of the protocol were optimized and characterized, we used the clinical grade Affinity Pixie Oxygenator. […]” for “injury.”

[3] = −10° C., 1 day, at 2 h of simulated transplantation
[4] = clinical grade oxygenator, −15° C., 1 day
[5] = clinical grade oxygenator, −15° C., 1 day, at 2 h
[6] = clinical grade oxygenator, −15° C., 5 day
[7] = clinical grade oxygenator, −15° C., 5 day, at 2 h

## OCCO [EG, ethylene glycol]
Whole rat livers [1]; −10° C., 1 day
  bile production during simulated transplantation: did not produce bile
  lactate clearance after first hour of simulated transplantation: not observed
  microscopic tissue structure (H&E, blinded pathologist): favorable to modest results
Whole rat livers [1]; −10° C., 1 day, at 2 h
  oxygen uptake during simulated transplantation: 21.4 ± 5.8 µL O2/min/g
  tissue adenylate energy charge: 0.088±0.065
  weight gain during simulated transplantation: 2.50±5.26%
Whole rat livers [1]; [3]
  AST levels: 967±330 U/L
  portal lactate concentration: 6.68 ± 1.71 mM

## CC(O)CO (stereo not shown) [PG, propylene glycol]
Whole rat livers [1]; 30 minutes warm ischemia prior to freezing at −10° C. for 1 day, at 2 h of simulated transplantation
  lactate: 6.37 ± 1.09 mM
Whole rat livers [1]; clinical grade oxygenator, 1 day frozen vs Clinical Oxy. Controls
  HSP70 in perfusate: increase
Whole rat livers [1]; clinical grade oxygenator, across all groups
  TNFα levels in perfusate: no changes
Whole rat livers [1]; clinical grade oxygenator, frozen livers versus controls
  8OHdG in perfusate: significantly lower
Whole rat livers [1]; [4]
  maximum ALT: 722.00±155.74 U/L
  maximum AST: 958.67±278.50 U/L
  potassium level at end of simulated transplantation: 5.23 ± 0.252 mM
Whole rat livers [1]; [5]
  bile production: 0.67 ± 0.92 µL/g
  liver weight gain during simulated transplantation: 12.00±8.66%
  vascular resistance: 0.004±0.002 mmHg*min*mL-i*g^−1
Whole rat livers [1]; [6]
  maximum ALT: 886.67±241.80 U/L
  maximum AST: 1190.33±117.35 U/L
  potassium level at end of simulated transplantation: 5.167 ± 0.404 mM
Whole rat livers [1]; [7]
  bile production: 2.92 ± 3.74 µL/g
  vascular resistance: 0.007±0.010 mmHg*min*mL-i*g^−1
Whole rat livers [1]; clinical grade oxygenator, −15° C., 5 days
  tissue adenylate energy charge: 0.131±0.031
Whole rat livers [1]; clinical grade oxygenator, −15° C., 5 days, at 2 h
  liver weight gain during simulated transplantation: 26.00±15.13%
Whole rat livers [1]; −10° C. and −15° C., 1 day
  microscopic tissue structure: some disruption of the lobular architecture with intact portal triads and hepatocyte swelling
Whole rat livers [1]; −10° C., 1 day
  bile production during simulated transplantation: did produce bile
  lactate clearance after first hour of simulated transplantation: cleared lactate
  microscopic tissue structure (H&E, blinded pathologist): favorable to modest results
Whole rat livers [1]; −10° C., 1 day, at 1 h
  AST levels: 567±172 U/L
  oxygen uptake during simulated transplantation: 36.9 ± 2.34 µL O2/min/g
Whole rat livers [1]; −10° C., 1 day, at 2 h
  oxygen uptake during simulated transplantation: 38.2 ± 3.66 µL O2/min/g
  vascular resistance during simulated transplantation: 0.019±0.011 mmHg*min*mL^−1*g^−1
  weight gain during simulated transplantation: 4.00±9.20%
Whole rat livers [1]; [3]
  AST levels: 979±520 U/L and 979±521 U/L
  portal lactate concentration: 2.95 ± 1.73 mM
  total cumulative bile volume: 3.56 ± 4.02 µL/g
Whole rat livers [1]; −15° C., 1 and 5 days
  lactate clearance during simulated transplantation: no lactate clearance was observed
Whole rat livers [1]; −15° C., 1 day
  bile production during simulated transplantation: 6.11 ± 4.69 µL/g
  tissue adenylate energy charge: 0.061±0.019
Whole rat livers [1]; −15° C., 1 day, at 1 h
  AST levels: 1283±224 U/L
  oxygen uptake during simulated transplantation: 23.5 ± 4.68 µL O2/min/g
Whole rat livers [1]; −15° C., 1 day, at 2 h
  AST levels: 1995±530 U/L
  lactate level at end of simulated transplantation: 5.21 ± 2.67 mM
  maximum ALT: 2335±597 U/L
  maximum potassium: 5.05 ± 0.48 mM
  oxygen uptake during simulated transplantation: 24.9 ± 2.38 µL O2/min/g
  vascular resistance during simulated transplantation: 0.021±0.010 mmHg*min*mL^−1*g^−1 and 0.011±0.004 mmHg*min*mL^−1*g^−1
Whole rat livers [1]; −15° C., 5 days
  bile production during simulated transplantation: 3.32 ± 2.43 µL/g
  microscopic tissue structure: moderate to marked loss of LSECs
  tissue adenylate energy charge: 0.062±0.029
Whole rat livers [1]; −15° C., 5 days, at 2 h
  lactate level at end of simulated transplantation: 5.73 ± 1.29 mM
  maximum ALT: 2316±242 U/L
  maximum potassium: 4.95 ± 0.48 mM
  oxygen uptake during simulated transplantation: 25.4 ± 9.78 µL O2/min/g
  vascular resistance during simulated transplantation: 0.021±0.021 mmHg*min*mL^−1*g^−1
  weight gain during simulated transplantation: 30.25±5.56%
Whole rat livers [2]
  weight gain during SNMP recovery after freezing: 40.00±4.32%
